Assay results from patent US6355799B1, “Substituted benzene compounds, process for their preparation, and herbicidal and defoliant compositions containing them” (ISK Americas Incorporated, priority 1997, dated 2002).

How the values were obtained:
Assay type in all cases: in vivo
[1] = tested on: upland rice (Oryza sp., var. Tebonnet, RICE); assay: Post-emerge test, crop safety; conditions: post-emerge, 14 days after application, rating scale 0-100
Outline: (§1)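 Sandy loam pots; pre-emerge: sown 1 d pre-spray, surface-watered after, then bottom-watered. Post-emerge: sown 8–21 d before, 2–3 leaf stage, + 0.25% v/v NIS, bottom-watered. Acetone, 187 l/ha track spray, 15–1000 g ai/ha. 0–100 injury score, day 14.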

[2] = tested on: field corn (Zea mays L., var. Dekalb 535, CORN); assay: Post-emerge test, crop safety; conditions: post-emerge, 14 days after application, rating scale 0-100
Outline: as §1

[3] = tested on: ivyleaf morningglory (Ipomoea hederacea, IPOHE); assay: Pre-emerge test, greenhouse herbicide activity screening; conditions: pre-emerge, 14 days after application, scale 0-100
Outline: as §1

[4] = tested on: velvetleaf (Abutilon theophrasti, ABUTH); assay: as above; conditions: pre-emerge, 14 days after application, scale 0-100
Outline: as §1

[5] = tested on: green foxtail (Setaria viridis, SETVI); assay: as above; conditions: pre-emerge, 14 days after application, scale 0-100
Outline: as §1

[6] = tested on: large crabgrass (Digitaria sanguinalis, DIGSA); assay: as above; conditions: pre-emerge, 14 days after application, scale 0-100
Outline: as §1

[7] = tested on: sicklepod (Cassia obtusifolia, CASOB); assay: as above; conditions: pre-emerge, 14 days after application, scale 0-100
Outline: as §1

[8] = tested on: lambsquarters (Chenopodium album, CHEAL); assay: as above; conditions: pre-emerge, 14 days after application, scale 0-100
Outline: as §1

[9] = tested on: barnyardgrass (Echinochloa crus-galli, ECHCG); assay: as above; conditions: pre-emerge, 14 days after application, scale 0-100
Outline: as §1

[10] = tested on: upland rice (Oryza sp., var. Tebonnet, RICE); assay: Pre-emerge test, crop safety; conditions: pre-emerge, 14 days after application, scale 0-100
Outline: as §1

[11] = tested on: field corn (Zea mays L., var. Dekalb 535, CORN); assay: Pre-emerge test, crop safety; conditions: pre-emerge, 14 days after application, scale 0-100
Outline: as §1

[12] = tested on: ivyleaf morningglory (Ipomoea hederacea, IPOHE); assay: Post-emerge test, greenhouse herbicide activity screening; conditions: post-emerge, 14 days after application, rating scale 0-100
Outline: (§2)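 Compounds in acetone were track-sprayed at 187 l/ha, 15–1000 g ai/ha, onto sandy loam pots. Pre-emerge seeds were sown one day before spraying, with surface watering afterwards. Post-emerge plants were at the 2–3 leaf stage and sprayed with 0.25% v/v non-ionic surfactant. Injury was rated 0–100 at 14 days.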

[13] = tested on: velvetleaf (Abutilon theophrasti, ABUTH); assay: as above; conditions: post-emerge, 14 days after application, rating scale 0-100
Outline: as §2

[14] = tested on: green foxtail (Setaria viridis, SETVI); assay: as above; conditions: post-emerge, 14 days after application, rating scale 0-100
Outline: as §2

[15] = tested on: large crabgrass (Digitaria sanguinalis, DIGSA); assay: as above; conditions: post-emerge, 14 days after application, rating scale 0-100
Outline: as §2

[16] = tested on: sicklepod (Cassia obtusifolia, CASOB); assay: as above; conditions: post-emerge, 14 days after application, rating scale 0-100
Outline: as §2

[17] = tested on: redroot pigweed (Amaranthus retroflexus, AMARE); assay: as above; conditions: post-emerge, 14 days after application, rating scale 0-100
Outline: as §2

[18] = tested on: lambsquarters (Chenopodium album, CHEAL); assay: as above; conditions: post-emerge, 14 days after application, rating scale 0-100
Outline: as §2

[19] = tested on: barnyardgrass (Echinochloa crus-galli, ECHCG); assay: as above; conditions: post-emerge, 14 days after application, rating scale 0-100
Outline: as §2

[20] = tested on: johnsongrass (Sorghum halepense, SORHA); assay: as above; conditions: post-emerge, 14 days after application, rating scale 0-100
Outline: as §2

[21] = tested on: redroot pigweed (Amaranthus retroflexus, AMARE); assay: Pre-emerge test, greenhouse herbicide activity screening; conditions: pre-emerge, 14 days after application, scale 0-100
Outline: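 Visual ratings on a 0-100 scale (0 no damage, 100 all plants dead) were taken at 14 days after treatment. Rates of 15-1000 g ai/ha in acetone, 187 l/ha, were sprayed onto soil one day after planting (pre-emerge) or onto 2-3 leaf plants with 0.25% v/v surfactant (post-emerge).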

COc1c(Cl)cc(F)c(-n2c(=O)cc(C(F)(F)F)n(C)c2=O)c1NC(=O)C=Cc1ccccc1[N+](=O)[O-] [2-126]
90: phytotoxicity rating IPOHE ([3]; 250 g ai/ha) | phytotoxicity rating DIGSA ([6]; 250 g ai/ha) | ABUTH phytotoxicity rating ([13]; 63 g ai/ha)
50: RICE phytotoxicity rating (crop damage) ([1]; 250 g ai/ha)
60: phytotoxicity rating RICE (crop damage) ([10]; 250 g ai/ha) | CASOB phytotoxicity rating ([16]; 63 g ai/ha) | CASOB phytotoxicity rating ([16]; 250 g ai/ha)
70: phytotoxicity rating CASOB ([7]; 250 g ai/ha)
95: CHEAL phytotoxicity rating ([18]; 250 g ai/ha)
5: phytotoxicity rating CORN (crop damage) ([11]; 250 g ai/ha)
0: RICE phytotoxicity rating (crop damage) ([1]; 63 g ai/ha) | phytotoxicity rating CORN (crop damage) ([11]; 63 g ai/ha) | ECHCG phytotoxicity rating ([19]; 63 g ai/ha) | SORHA phytotoxicity rating ([20]; 63 g ai/ha)
100: phytotoxicity rating ABUTH ([4]; 63 g ai/ha) | phytotoxicity rating ABUTH ([4]; 250 g ai/ha) | phytotoxicity rating SETVI ([5]; 250 g ai/ha) | phytotoxicity rating CHEAL ([8]; 63 g ai/ha) | phytotoxicity rating CHEAL ([8]; 250 g ai/ha) | IPOHE phytotoxicity rating ([12]; 250 g ai/ha) | ABUTH phytotoxicity rating ([13]; 250 g ai/ha) | AMARE phytotoxicity rating ([17]; 250 g ai/ha) | phytotoxicity rating AMARE ([21]; 63 g ai/ha) | phytotoxicity rating AMARE ([21]; 250 g ai/ha)
40: phytotoxicity rating SETVI ([5]; 63 g ai/ha) | phytotoxicity rating ECHCG ([9]; 250 g ai/ha) | SETVI phytotoxicity rating ([14]; 250 g ai/ha)
30: phytotoxicity rating DIGSA ([6]; 63 g ai/ha) | SETVI phytotoxicity rating ([14]; 63 g ai/ha) | DIGSA phytotoxicity rating ([15]; 250 g ai/ha)
20: DIGSA phytotoxicity rating ([15]; 63 g ai/ha)
10: CORN phytotoxicity rating (crop damage) ([2]; 63 g ai/ha) | CORN phytotoxicity rating (crop damage) ([2]; 250 g ai/ha) | phytotoxicity rating IPOHE ([3]; 63 g ai/ha) | phytotoxicity rating CASOB ([7]; 63 g ai/ha) | phytotoxicity rating ECHCG ([9]; 63 g ai/ha) | phytotoxicity rating RICE (crop damage) ([10]; 63 g ai/ha) | ECHCG phytotoxicity rating ([19]; 250 g ai/ha) | SORHA phytotoxicity rating ([20]; 250 g ai/ha)
80: IPOHE phytotoxicity rating ([12]; 63 g ai/ha) | AMARE phytotoxicity rating ([17]; 63 g ai/ha) | CHEAL phytotoxicity rating ([18]; 63 g ai/ha)

COc1ccccc1C=CC(=O)Nc1c(OC)c(Cl)cc(F)c1-n1c(=O)cc(C(F)(F)F)n(C)c1=O [2-127]
90: phytotoxicity rating AMARE ([21]; 63 g ai/ha)
100: phytotoxicity rating ABUTH ([4]; 63 g ai/ha) | phytotoxicity rating ABUTH ([4]; 250 g ai/ha) | phytotoxicity rating DIGSA ([6]; 250 g ai/ha) | phytotoxicity rating CHEAL ([8]; 63 g ai/ha) | phytotoxicity rating CHEAL ([8]; 250 g ai/ha) | IPOHE phytotoxicity rating ([12]; 63 g ai/ha) | ABUTH phytotoxicity rating ([13]; 63 g ai/ha) | ABUTH phytotoxicity rating ([13]; 250 g ai/ha) | CASOB phytotoxicity rating ([16]; 63 g ai/ha) | AMARE phytotoxicity rating ([17]; 63 g ai/ha) | AMARE phytotoxicity rating ([17]; 250 g ai/ha) | CHEAL phytotoxicity rating ([18]; 250 g ai/ha) | phytotoxicity rating AMARE ([21]; 250 g ai/ha)
95: IPOHE phytotoxicity rating ([12]; 250 g ai/ha)
20: phytotoxicity rating SETVI ([5]; 63 g ai/ha) | DIGSA phytotoxicity rating ([15]; 63 g ai/ha) | ECHCG phytotoxicity rating ([19]; 250 g ai/ha) | SORHA phytotoxicity rating ([20]; 63 g ai/ha) | SORHA phytotoxicity rating ([20]; 250 g ai/ha)
60: CASOB phytotoxicity rating ([16]; 250 g ai/ha)
80: phytotoxicity rating SETVI ([5]; 250 g ai/ha)
35: RICE phytotoxicity rating (crop damage) ([1]; 250 g ai/ha)
70: CHEAL phytotoxicity rating ([18]; 63 g ai/ha)
40: phytotoxicity rating CASOB ([7]; 250 g ai/ha) | phytotoxicity rating ECHCG ([9]; 250 g ai/ha) | SETVI phytotoxicity rating ([14]; 250 g ai/ha)
0: phytotoxicity rating IPOHE ([3]; 63 g ai/ha) | phytotoxicity rating CASOB ([7]; 63 g ai/ha) | phytotoxicity rating ECHCG ([9]; 63 g ai/ha) | phytotoxicity rating RICE (crop damage) ([10]; 63 g ai/ha) | phytotoxicity rating CORN (crop damage) ([11]; 63 g ai/ha) | phytotoxicity rating CORN (crop damage) ([11]; 250 g ai/ha)
30: RICE phytotoxicity rating (crop damage) ([1]; 63 g ai/ha) | phytotoxicity rating DIGSA ([6]; 63 g ai/ha) | SETVI phytotoxicity rating ([14]; 63 g ai/ha) | DIGSA phytotoxicity rating ([15]; 250 g ai/ha) | ECHCG phytotoxicity rating ([19]; 63 g ai/ha)
50: phytotoxicity rating IPOHE ([3]; 250 g ai/ha)
10: CORN phytotoxicity rating (crop damage) ([2]; 63 g ai/ha) | phytotoxicity rating RICE (crop damage) ([10]; 250 g ai/ha)
15: CORN phytotoxicity rating (crop damage) ([2]; 250 g ai/ha)
